US20160083374A1, “AMORPHOUS FORM OF CANAGLIFLOZIN AND PROCESS FOR PREPARING THEREOF” (CADILA HEALTHCARE LIMITED, priority 2013, published 2016)

Legend:
[1] = Solid-form stability under normal stability conditions; format: physicochemical; details: amorphous canagliflozin obtained by removal of solvent per the invention
Source text: The obtained amorphous canagliflozin is stable under normal stability conditions and substantially free from residual solvent. Therefore, there is no physical change observed from amorphous form to crystalline form during the stability.
In another general aspect, the stable amorphous form of canagliflozin, is stored under nitrogen atmosphere and packed in a double polythene bag tied with a thread, keeping primary packing containing amorphous canagliflozin or salts thereof inside a black color polyethylene bag containing oxygen busters and sealing it, placing above the double polyethylene bag inside a triple laminated bag optionally containing oxygen busters and sealing it, and placing the sealed triple laminated bag inside a closed high density polyethylene (HDPE) container and storing in controlled environment chamber at about 25° C. and/or 40° C.

[2] = cited from earlier work

## Cc1ccc([C@@H]2O[C@H](CO)[C@@H](O)[C@H](O)[C@H]2O)cc1Cc1ccc(-c2ccc(F)cc2)s1 [amorphous canagliflozin]
[1]
  stability of amorphous form (change from amorphous to crystalline form): stable
[2]; amorphous canagliflozin of US '487 A1, humidity increased from 70% to 90% RH
  physical change between sorption/desorption cycles: conversion or partial conversion from the amorphous state to a crystalline state
[2]; amorphous canagliflozin prepared by the process of US '487 A1 (toluene solution into n-heptane)
  hygroscopicity by DVS: hygroscopic
